3 compounds from patent publication US20100093642A1, “NOVEL POLYPEPTIDES” (priority 2006, published 2010) can be followed below.

Data set [1] concerns TNF-α. Put plainly: Inhibition of LPS induced TNF-α response in THP-1 cells (ELISA). The format is cell-based, human. Conditions: Ratio TC50 (THP-1)/EC50 (anti-TNFα). The procedure: FIG. 12. Antiinnflammatory response measured as inhibition of tumor necrosis factor alpha (TNF-α) response in THP-1 cells after stimulation with LPS. THP-1 cells (1×10^6 cells/ml) were treated with P17 derivates in different concentrations for 1 hour, and subsequently stimulated with 100 ng/ml LPS for 6 hours. LPS was used as control for induction of TNF-α. (set as 100% response), RPMI media was used as negative (non-stimulated) control, and cycloheximide (Chx, 10 μg/ml) was used as a an inhibitory control for LPS induced TNF-α. The data presented are the average of two parallells. (A) The effect of the peptides P17 HC and P17 HC (1-20). (B) The effect of the peptides P17 HC (11-20) and P17 HC-Br.
The THP-1 cells (ATCC, TIB-202) were maintained in suspension in RPMI-1640 medium with 25 mM HEPES and 2 mM Glutamax I supplemented with 10% FBS (growth medium) in a humidified atmosphere of 5% CO2 at 37° C. Cells to be used in the assay were grown to a density of 8×10^5-1×10^6 cells/ml. The cells were centrifuged for 7 min at 200 g and the cell pellet was resuspended to a concentration of 10^6 cells/ml in RPMI-1640 with 10% FBS.
To allow examination of antiinflammatory effects of the peptides on basal and stimulated cytokine production, peptide-treated macrophages were cultured in the presence of LPS and the levels of TNF-α were measured. The primary screening was based on a mammalian cell line; the human THP-1 line. This line is of monocyte/macrophage origin and responds to various stimuli by increased production of cytokines, like TNF-α and the IL-1β, (Wang et al. 2000). To induce monocyte-macrophage differentiation, THP-1 cells were cultured in 96-well culture plates (10^6 cells/well) in a volume of 100 μl RPMI 1640 medium, containing 50 ng/ml PMA (which is known to induce the maturation of monocytes) and incubated in a humidified atmosphere of 5% CO2, at 37° C. for 48 hours. The medium was then removed and the cells were washed with PBS, added 100 μl fresh medium (without PMA) and incubated for another 24 hours. Medium was removed and the adherent macrophages were treated with 100 μl of peptide solution (concentrations ranging from 0 to 400 μg/ml), diluted in RPMI-1640 medium with 25 mM HEPES and 2 mM Glutamax I, but without […] (assay medium). After incubation at 37° C. for 1 hour, the cells were added LPS (0.1 μg/ml) and further incubated for 6 hours. […] TNF-α concentrations were quantified by the Human TNF-α ELISA MAX kit (BioLegend), according to the manufacturer's instructions. Duplicate readings for each standard, control and sample were recorded. The average absorbance for each set of standards, controls, and samples was calculated using a standard curve. Concentrations were determined by extrapolation on the standard curve.
For orientation: In an ELISA, binding on a coated surface is turned into a signal by an enzyme label.

Data set [2] deals with human skin malignant melanoma cell line A2058. It counts as cell-based. Conditions: human, 24 h. The procedure: (§1) The cytotoxic effects of the peptides on different human tumour cells were measured using the MTT colorimetric assay (Mosmann, 1983). […] Dissolved MIT is converted to an insoluble purple formazan by cleavage of the tetrazolium ring by dehydrogenase enzymes. This water insoluble formazan can be solubilized using isopropanol or other solvents and the dissolved material is measured spectrophotometrically. The absorbance was measured as a function of concentration of converted dye. The conversion of the soluble dye to the insoluble purple formazan is utilized in assays for measurement of cell proliferation. […] We used this assay to measure the degree of cell death caused by the peptides. MCF-7 was maintained in EMEM, A2058 in DMEM and […]-29 in RPMI-1640 medium supplemented with 10% heat inactivated […] and 1% L-glutamine-L-alanine in a humidified atmosphere of 5% CO2 at 37° C. The human embryonic fibroblast cell line, MRC-5 (which is normal fibroblasts), was cultured as a monolayer in MEM medium, under the same conditions as described for the tumour cell lines. Cells to be used in the assay were grown to a minimum of 75% confluency, trypsinated and split to single cell suspension, counted and centrifuged at 1500 rpm for 10 min. The cell pellet was resuspended to a concentration of 2×10^5 cells/ml (HT-29) or 1×10^5 (MRC-5, MCF7 and A2058) in DMEM without FBS and L-glutamine-L-alanine (assay-medium). All cell lines were routinely tested for mycoplasma infection using a PCR-based mycoplasma detection kit (MycoSensor PCR Assay Kit, Stratagene), following the supplier's instructions. All cell lines were mycoplasma free. The cytotoxicity was measured using the MTT method (Mosmann, 1983), with minor modifications. Different human tumour cells (1-2×10^5) were applied in 96-well culture plates in a volume of 100 μl DMEM medium and incubated at 37° C. for 24 hours. The medium was removed and the cells were treated with 100 μl of peptide solution (concentrations ranging from 0 to 200 μg/ml), diluted in a) RPMI-1640 medium supplemented with 5% heat inactivated FBS, or b) RPMI-1640 medium without FBS. The plates were incubated at 37° C. for 24 hours. Cells treated with Triton X-100 (1%) was used as positive control (100% killing) whereas cells plus medium only were used as negative control. […] A volume of 70 μl of the supernatant was then removed and […] (0.04 M HCl in isopropanol) added to each well. The plate was placed on a shaker for 1 hour at room temperature and read spectrophotometrically at 590 nm in a microtiter plate reader (DTX880 Multimode Detector, Beckman Coulter).

Data set [3] relates to human breast malignant carcinoma cell line MCF-7. The format is cell-based. Conditions: human, 24 h. The procedure: as §1
The subject of data set [4] is Listonella (Vibrio) anguillarum, serotype O2 (FT 1801). The format is cell-based. The method in brief:
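Peptide fractions were incubated with actively growing bacteria in Mueller Hinton medium at a starting concentration of 3×10^4 cells per ml. Growth was monitored continuously in a Bioscreen C reader; polymyxin B served as reference.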

Converted amounts (≈) assume the structure as drawn. Residues, ends and D or L forms follow the SMILES beside them. No end group written: not given here.

For orientation: IC50 means the midpoint of a concentration-inhibition curve. For `CC[C@H](C)[C@H](NC(=O)CNC(=O)[C@H](CO)NC(=O)[C@H](CCCCN)NC(=O)[C@@H](NC(=O)[C@H](C)NC(=O)[C@H](Cc1c[nH]cn1)NC(=O)[C@H](CO)NC(=O)[C@@H](NC(=O)[C@H](CCCCN)NC(=O)[C@H](Cc1c[nH]cn1)NC(=O)[C@H](Cc1ccccc1)NC(=O)[C@@H](NC(=O)[C@H](CCCCN)NC(=O)[C@H](CCCCN)NC(=O)[C@H](Cc1ccccc1)NC(=O)C(Cc1c[nH]c2ccc(Br)cc12)NC(=O)CN)[C@@H](C)O)C(C)C)C(C)C)C(=O)N[C@@H](Cc1c[nH]cn1)C(=O)N[C@@H](C)C(=O)NCC(=O)N[C@@H](CCC(N)=O)C(=O)N[C@@H](CCCNC(=N)N)C(=O)NCC(=O)N[C@@H](CS)C(=O)N[C@@H](CO)C(=O)N[C@@H](C)C(=O)N[C@@H](CC(C)C)C(=O)NCC(=O)N[C@@H](Cc1ccccc1)C(=O)O` (stereo partly drawn) [P17 HC-Br] (HELM PEPTIDE1{G.[O=C(C(Cc1c[nH]c2ccc(Br)cc12)N[*:1])[*:2]].F.K.K.T.F.H.K.V.S.H.A.V.K.S.G.I.H.A.G.Q.R.G.C.S.A.L.G.F}$$$$V2.0), the “Therapeutic index TC50/EC50” value in data set [1] amounted to 46.5. Further, the IC50 in data set [2] and in data set [3] was below 10 µM each time. Besides, the “Minimal inhibitory concentration, L. anguillarum” value in data set [4] is 0.78 µM (≈ 2.59 µg/mL).
Regarding GWFKKTFHKVSHAVKSGIHA [P17 HC (1-20)], the “Therapeutic index TC50/EC50” value in data set [1] is given as above 17.4.
For GWFKKTFHKVSHAVKSGIHAGQRGCSALGF [P17 HC], in data set [1], the “Therapeutic index TC50/EC50” value worked out at 13.6. Further, the half-inhibitory concentration (IC50) in data set [2] and in data set [3] was below 10 µM in each case. The “Minimal inhibitory concentration, L. anguillarum” value in data set [4] was determined as 0.78 µM.
